Measured values: US6696471B2, “Aminopyrrole compounds” (Syntex (U.S.A.) LLC, priority 2001, dated 2004)

Target: T1, p38 MAP kinase (Homo sapiens, UniProt Q16539)
T1 construct: made in house; host or cells: E. coli (co-expressed with SEK-1 and MEKK)
Assay: Inhibition of p-38 (MAP) kinase in vitro assay (transfer of γ-33P from ATP to Myelin Basic Protein)
Type: biochemical
Details: phosphorylated recombinant p38 MAP kinase, MBP substrate, γ-33P-ATP, 30° C.; read-out: p-38 inhibitory activity, IC50
Description: Inhibition Of p-38 (MAP) Kinase . . . In Vitro Assay
The p-38 MAP kinase inhibitory activity of compounds of this invention in vitro was determined by measuring the transfer of the γ-phosphate from γ-^33P-ATP by p-38 kinase to Myelin Basic Protein (MBP), using the a minor modification of the method described in Ahn, N. G.; et al. J. Biol. Chem. Vol. 266(7), 4220-4227, (1991).
The phosphorylated form of the recombinant p38 MAP kinase was expressed with SEK-1 and MEKK in E. Coli and then purified by affinity chromatography using a Nickel column.
The phosphorylated p38 MAP kinase was diluted in kinase buffer (20 mM 3-(N-morpholino)propanesulfonic acid, pH 7.2, 25 mM β-glycerol phosphate, 5 mM ethylene glycol-bis (beta-aminoethyl ether)-N,N,N′,N′-tetraacetic acid, 1 mM sodium vanadate, 1 mM dithiothreitol, 40 mM magnesium chloride). Test compound dissolved in DMSO or only DMSO (control) was added and the samples were incubated for 10 min at 30° C. The kinase reaction was initiated by the addition of a substrate cocktail containing MBP and γ-^33P-ATP. After incubating for an additional 20 min at 30° C., the reaction was terminated by adding 0.75% phosphoric acid. The phosphorylated MBP was then separated from the residual γ-^33P-ATP using a phosphocellulose membrane (Millipore, Bedford, Mass.) and quantitated using a scintillation counter (Packard, Meriden, Conn.).
Compounds of the invention were active in this assay. The p-38 inhibitory activities (expressed as IC50, the concentration causing 50% inhibition of the p-38 enzyme being assayed) of some compounds of the invention are: […]

T1 sequence (Q16539 whole entry): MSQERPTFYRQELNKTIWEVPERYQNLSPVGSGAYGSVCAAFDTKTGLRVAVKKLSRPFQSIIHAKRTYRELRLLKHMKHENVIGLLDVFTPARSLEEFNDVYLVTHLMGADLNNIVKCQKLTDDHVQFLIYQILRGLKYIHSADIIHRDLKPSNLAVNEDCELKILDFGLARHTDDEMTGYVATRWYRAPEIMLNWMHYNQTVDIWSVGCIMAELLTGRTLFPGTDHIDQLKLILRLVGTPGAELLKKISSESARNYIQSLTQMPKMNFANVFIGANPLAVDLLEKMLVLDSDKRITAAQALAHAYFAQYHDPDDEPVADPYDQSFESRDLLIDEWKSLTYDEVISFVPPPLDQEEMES

Row | Compound | IC50
1 | COc1cccc(C(=O)c2cc(-c3cccnc3)n(-c3ccc(F)cc3)c2N)c1 [Cpd 2] | 169 nM
2 | Nc1c(C(=O)c2cccc(O)c2)cc(-c2cccnc2)n1-c1ccc(F)cc1 [Cpd 3] | 468 nM
3 | Nc1c(C(=O)c2cccc(OC[C@H](O)CO)c2)cc(-c2cccnc2)n1-c1ccc(F)cc1 [Cpd 4] | 120 nM
4 | Nc1c(C(=O)c2ccccc2)cc(-c2cccnc2)n1-c1ccc(F)cc1 [Cpd 1] | 164 nM
